Tests used:
[1] = 7-month study on body weight loss in 22 test persons administered creatine; assay type: in vivo, human
Method: An experiment was carried out with 22 test persons in order to confirm the weight reducing effect of creatine using the dosage according to the invention. The test persons were instructed for the duration of the experiment not to change their day-to-day habits (diet and physical exercise). In order to find the optimal dosage the test persons were initially divided into three groups with a daily dosage of either 100 mg, 300 mg or 600 mg of creatine. […] The data are reported as so-called body mass index (BMI), which is calculated from the body weight in dilograms divided by the height in meters in square.

[2] = cited from earlier work

For CN(CC(=O)O)C(=N)N [creatine, N-Amidinosarcosine], the “body weight, reported as body mass index (BMI)” value ([1]; 7-month study, 22 test persons, after the 3 months dosage-finding period, single daily dose of 100 mg) is given as “a steady decrease of body weight occured”, the “weight loss in dosage-finding period” value ([1]; groups with daily dosage of 100 mg, 300 mg or 600 mg of creatine, after 3 months, diet and physical exercise unchanged) is given as “the group with 100 mg had shown the most noticeable weight loss” and the body weight ([2]; daily dosage of at least 15 g to 30 g (0.2 g to 0.4 g per kilogram body weight), physically active test persons, WO 94/02127, Sahelian, Gremion) is given as “enhancement of body weight”. The fat mass ([2]; high-dose creatine with high muscle strain, Sahelian 1997, Gremion 1995) was “the fat mass is decreased”.

Reference: patent publication US6433015B1, “Method for reducing body weight” (IPR-Institute for Pharmaceutical Research AG, priority 1997, dated 2002)
